Reference: patent US20210060093A1, “COMBINATION THERAPY FOR TREATING OR PREVENTING CANCER” (4D Pharma Research Limited, priority 2018, published 2021)

Experiments:
RENCA tumour cells = test: Antitumor activity, RENCA model; format: in vivo, mouse; conditions: D18 and D22, compared to untreated and vehicle groups, FIG. 3B
Method: Treatment schedule—The start of first dosing was considered as D0. On D0, non-engrafted mice were randomized according to their individual body weight into groups of 9 mice using Vivo manager® software (Biosystemes, Couternon, France). On D0, the mice received vehicle (culture medium) or bacterial strain (2×10^8 in 200 μL, PO). On D14, all mice were engrafted with RENCA tumour cells injected SC into the ventral surface of the lower flank as described below. Treatment with anti-CTLA-4 (10 mg/kg, IP) and anti-PDL1 (clone 10F.9G2, 10 mg/kg) was initiated when tumours reached a volume of 50-70 mm3.
Orthotopic induction of RENCA tumor cells in animals by SC injection—On D14, one million (1×10^6) RENCA tumor cells in 50 μL RPMI 1640 medium were transplanted via SC injection into the ventral surface of the lower flank of mice.
Euthanasia—Each mouse was euthanized when it reached a humane endpoint as described in section below, or after a maximum of 6 weeks post start of dosing.
Evaluation of tumour burden at euthanasia—At the time of termination, tumours were collected and their volume evaluated.
Clinical monitoring—The length and width of the tumour was measured twice a week with callipers and the volume of the tumour was estimated by this formula [52]: […]

immature dendritic cells = test: Cytokine production in immature dendritic cells; format: cell-based; conditions: MRX518 10^7/ml, LPS 100 ng/ml, FIGS. 4b, 4d
Method: A monocyte population was isolated from peripheral blood mononuclear cells (PBMCs). The monocyte cells were subsequently differentiated into immature dendritic cells. The immature dendritic cells were plated out at 200,000 cells/well and incubated with MRX518 at a final concentration of 10^7/ml, with the optional addition of LPS at a final concentration of 100 ng/ml. The negative control involved incubating the cells with RPMI media alone and positive controls incubated the cells with LPS at a final concentration of 100 ng/ml. The cytokine content of the cells was then analysed.

Molecule | reduction in tumour size (RENCA tumour cells) | level of IL-1β (immature dendritic cells)
CC(=O)O[C@H]1C(=O)[C@@]2(C)[C@H]([C@H](OC(=O)c3ccccc3)[C@]3(O)C[C@H](OC(=O)[C@H](O)[C@@H](NC(=O)c4ccccc4)c4ccccc4)C(C)=C1C3(C)C)[C@]1(OC(C)=O)CO[C@@H]1C[C@@H]2O [Paclitaxel] | (almost) complete reduction in tumour size | 
lipopolysaccharide [LPS] |  | but not IL-1β
